Test results published in paper PMC11220827 (Frontiers in Pharmacology, 2024).
Where two headings read alike, the source gives them in different places.

Key:
[1] = test system: HepG2 cells; test: cells; assay type: cell-based
[2] = target: Transthyretin (TTR) (Homo sapiens, UniProt P02766); details: reference
Description: DMSO (1% compound stock in incubation mixture). The incubation mixture was transferred to 96 -
was measured on a Berthold luminometer.
Serial dilutions of the compounds were incubated in Tris -buffer (pH 8.0) overnight at 4°C in the
incubation mixture). After incubation, TTR-bound and free T4 were separated on a Bio-Gel P-6DG
column. The eluate was added to assay medium after which TRβ CALUX cells were exposed for 24 h
(see CALUX bioassays). For this TRβ CALUX exposure, serum-free assay medium was used.

[3] = HepG2, 24 h, NR = No response observed

CN(CCOc1ccc(CC2SC(=O)NC2=O)cc1)c1ccccn1 (stereo not shown) [Rosiglitazone, reference compound]
AC50 ([1]; Homo sapiens, HepG2, 24 h, read-out: Mitochondrial oxidative stress: PGC1α: AC50): > 125 µM | Mitochondrial oxidative stress: PGC1α: MEC ([1]; human, 24 h): 67.8 µM

C[C@H](CCC(=O)O)C[C@H](C)C[C@H](C)C(=O)/C=C(\O)[C@H](C)C[C@H](C)C/C=C/[C@@H](C)[C@@H](O)[C@@H](C)[C@@H](O)C[C@@H]1CC[C@@](C)([C@H]2CC[C@@](C)([C@@H](C)O)O2)O1 [Ionomycin, reference compound]
Apoptosis & necrosis: caspase 3/7: MEC ([1]; HepG2, 24 h): 0.0225 µM | Apoptosis & necrosis: cell cycle arrest: MEC ([1]; HepG2, 24 h): 0.0283 µM | Inflammation & pH: IL-8: MEC ([1]; HepG2, 24 h): 0.496 µM | Apoptosis & necrosis: caspase 3/7: Effect [1, 3]: increase | Apoptosis & necrosis: cell cycle arrest: Effect [1, 3]: decrease | Inflammation & pH: IL-8: Effect [1, 3]: increase | AC50 ([1]; Homo sapiens, HepG2, 24 h, read-out: Apoptosis & necrosis: caspase 3/7: AC50): 0.798 µM | AC50 ([1]; Homo sapiens, HepG2, 24 h, read-out: Apoptosis & necrosis: cell cycle arrest: AC50): 0.056 µM | AC50 ([1]; Homo sapiens, HepG2, 24 h, read-out: Apoptosis & necrosis: cell membrane permeability: AC50): 30.8 µM | AC50 ([1]; Homo sapiens, HepG2, 24 h, read-out: Inflammation & pH: IL-8: AC50): > 10 µM

c1ccc2c(c1)cc1ccc3cccc4ccc2c1c34 [Benzo(a)pyrene, reference compound]
AC50 ([1]; Homo sapiens, HepG2, 24 h, read-out: AhR Translocation: AC50): > 100 µM | AhR Translocation: MEC ([1]; human, 24 h): 0.389 µM

CCCCCC[C@H]1C(=O)O[C@H](C)[C@H](NC(=O)c2cccc(NC=O)c2O)C(=O)O[C@@H](C)[C@@H]1OC(=O)CC(C)C [Antimycin A, reference compound]
Mitochondrial mass: Effect [1, 3]: increase | AC50 ([1]; Homo sapiens, HepG2, 24 h, read-out: Mitochondrial mass: AC50): 0.245 µM

CC[C@@]1(O)C(=O)OCc2c1cc1n(c2=O)Cc2cc3ccccc3nc2-1 [(S)-(+)-camptothecin, reference compound]
DNA damage: Phospho-p53: MEC ([1]; HepG2, 24 h): 0.412 µM | DNA damage: p-H2AX: MEC ([1]; HepG2, 24 h): 1.06 µM | DNA damage: Phospho-p53: Effect [1, 3]: increase | DNA damage: p-H2AX: Effect [1, 3]: increase | AC50 ([1]; HepG2, 24 h, read-out: DNA damage: Phospho-p53: AC50): 1.25 µM | AC50 ([1]; HepG2, 24 h, read-out: DNA damage: p-H2AX: AC50): 9.1 µM

CC(C)(c1cc(Br)c(O)c(Br)c1)c1cc(Br)c(O)c(Br)c1 [Tetrabromobisphenol A, reference compound]
TTR binding (thyroid) LOEC, reference compound [2]: −7.9 Log M

C=C(CC)C(=O)c1ccc(OCC(=O)O)c(Cl)c1Cl [Ethacrynic acid, reference compound]
AC50 ([1]; Homo sapiens, HepG2, 24 h, read-out: Oxidative stress: HMOX1: AC50): 19.2 µM | AC50 ([1]; Homo sapiens, HepG2, 24 h, read-out: Oxidative stress: NRF2: AC50): 28 µM | AC50 ([1]; Homo sapiens, HepG2, 24 h, read-out: Oxidative stress: SRXN1: AC50): 19 µM | Oxidative stress: HMOX1: MEC ([1]; human, 24 h): 0.824 µM | Oxidative stress: NRF2: MEC ([1]; human, 24 h): 3.52 µM | Oxidative stress: SRXN1: MEC ([1]; human, 24 h): 6.17 µM

Tunicamycin [reference compound]
ER stress panel 1: BiP: MEC ([1]; HepG2, 24 h): < 0.391 µM | ER stress panel 1: ER integrity: MEC ([1]; HepG2, 24 h): 0.453 µM | ER stress panel 1: XBP1: MEC ([1]; HepG2, 24 h): 0.532 µM | ER stress panel 2: ATF4: MEC ([1]; HepG2, 24 h): < 0.391 µM | ER stress panel 2: CHOP: MEC ([1]; HepG2, 24 h): 0.955 µM | ER stress panel 1: BiP: Effect [1, 3]: increase | ER stress panel 1: ER integrity: Effect [1, 3]: increase | ER stress panel 1: XBP1: Effect [1, 3]: increase | ER stress panel 2: ATF4: Effect [1, 3]: increase | ER stress panel 2: CHOP: Effect [1, 3]: increase | AC50 ([1]; HepG2, 24 h, read-out: ER stress panel 1: BiP: AC50): > 1.56 µM | AC50 ([1]; HepG2, 24 h, read-out: ER stress panel 1: ER integrity: AC50): 2.22 µM | AC50 ([1]; HepG2, 24 h, read-out: ER stress panel 1: XBP1: AC50): > 3.13 µM | AC50 ([1]; HepG2, 24 h, read-out: ER stress panel 2: ATF4: AC50): 27.9 µM | AC50 ([1]; HepG2, 24 h, read-out: ER stress panel 2: CHOP: AC50): > 6.25 µM

OC[C@@H](O)[C@@H](O)[C@H](O)[C@@H](O)CO [Sorbitol, reference compound]
Osmotic & heat shock: hsp70: Effect [1]: increase | AC50 ([1]; Homo sapiens, HepG2, 24 h, read-out: Osmotic & heat shock: hsp70: AC50): 91700 µM | Osmotic & heat shock: hsp70: MEC ([1]; human, 24 h): 29000 µM

C=C(C)[C@H]1Cc2c(ccc3c2O[C@@H]2COc4cc(OC)c(OC)cc4[C@@H]2C3=O)O1 [Rotenone, reference compound]
Cellular ATP: MEC ([1]; HepG2, 24 h): < 0.04 µM | LDH release: MEC ([1]; HepG2, 24 h): 0.138 µM | Mitochondrial membrane potential: MEC ([1]; HepG2, 24 h): 0.00254 µM | Oxidative stress (ROS): MEC ([1]; HepG2, 24 h): 0.681 µM | Seahorse assay: Extracellular acidification rate (ECAR): MEC ([1]; HepG2, 24 h): 0.00546 µM | Seahorse assay: oxygen consumption rate (OCR): MEC ([1]; HepG2, 24 h): 0.000832 µM | Seahorse assay: reserve capacity: MEC ([1]; HepG2, 24 h): 0.000657 µM | AC50 ([1]; Homo sapiens, HepG2, 24 h, read-out: Cellular ATP: AC50): 3.05 µM | AC50 ([1]; Homo sapiens, HepG2, 24 h, read-out: LDH release: AC50): 57.6 µM | AC50 ([1]; Homo sapiens, HepG2, 24 h, read-out: Mitochondrial membrane potential: AC50): 0.094 µM | AC50 ([1]; Homo sapiens, HepG2, 24 h, read-out: Oxidative stress (ROS): AC50): > 100 µM | AC50 ([1]; Homo sapiens, HepG2, 24 h, read-out: Seahorse assay: Extracellular acidification rate (ECAR): AC50): 0.00549 µM | AC50 ([1]; Homo sapiens, HepG2, 24 h, read-out: Seahorse assay: oxygen consumption rate (OCR): AC50): 0.00432 µM | AC50 ([1]; Homo sapiens, HepG2, 24 h, read-out: Seahorse assay: reserve capacity: AC50): 0.00248 µM
